Measurements reported in patent US20060009426A1, “Pharmaceutical compositions comprising calcitriol and a clobetasol propionate” (GALDERMA RESEARCH & DEVELOPMENT, S.N.C., priority 2002, published 2006).

Columns and labels:
[1] = system: mouse ear oedema; test: Ear oedema in the delayed hypersensitivity model of mice sensitized with a hapten (oxazolone); format: in vivo, Balb/c mice
Method: This test represents a reliable model for predicting the immunomodulatory properties of a product in a pathology of Th1 type such as psoriasis.
(§1) 8-week-old Balb/c mice are pretreated on the abdominal skin from day 1 to day 6 using product A or B, or A and B diluted in ethanol. On day 6, the mice are actively sensitized by the topical application of 50 mg of oxazolone (oxa) in ethanol onto the abdominal skin. On day 11, an application of 20 mg of oxa in ethanol is performed on the right ear.
Student's t test was used for the statistical analysis of the results.
The thickness of the ear is measured, using a micrometer, on day 11 (just before the application of oxazolone to the presensitized mice) and after 24 hours, on day 12. The ear oedema is expressed as the difference between the measurement of the thickness of the ear between day 12 and day 11. The values of the thickness of the ear are analyzed statistically using Student's t test.

[2] = system: auricular ganglionic cells; test: Count of the auricular ganglionic cells in oxazolone-sensitized mice; format: in vivo, Balb/c mice; conditions: dose series, day 12, cells per animal
Method: as §1
On day 12, one day after the repeated application of the oxa, the animals were sacrificed by cervical dislocation. The ganglionic cells are collected and combined by experimental group. A cell suspension is prepared and the cells are then counted. The number of cells is expressed per animal.

## CCC(=O)O[C@]1(C(=O)CCl)[C@@H](C)C[C@H]2[C@@H]3CCC4=CC(=O)C=C[C@]4(C)[C@@]3(F)[C@@H](O)C[C@@]21C [product B, clobetasol propionate]
[1]; clobetasol propionate alone at 0.01%, topical
  efficacy on inflammation (ear oedema, FIGS. 1 and 2): moderate efficacy
[1]; dose series, topical pretreatment day 1 to day 6, oedema = ear thickness day 12 minus day 11
  effect of topical application on the intensity of mouse ear oedema (FIG. 1): dose-response effect
[2]
  effect on the count of auricular ganglionic cells (FIG. 3): dose-response effect
